Literature values as cited in patent publication US11224576B2, “Process for the production of an abuse-proofed dosage form” (GRÜNENTHAL GMBH, priority 2004, dated 2022).

COc1cccc(C2(O)CCCCC2CN(C)C)c1 (stereo not shown) [Tramadol, tramadol]
water solubility: excellent
